Measured values from ChEMBL document CHEMBL3244339, “Antitumor 1-(X-aryl)-3,3-dialkyltriazenes. 1. Quantitative structure-activity relationships vs. L1210 leukemia in mice” (J Med Chem, 1978).
Activity calls are given as the source filed them. The calls are words filed in the database; no cut-off is given here.

test system: L1210; test: Antitumor activity against mouse L1210 cells allografted in mouse assessed as increase of host lifespan; format: functional; conditions: not given

Compound | log(1/C)
CN(C)/N=N/c1ccc(NC(N)=O)cc1 | 3.97
CCOC(=O)c1[nH]c(-c2ccccc2)nc1/N=N/N(C)C | 3.48
CN(C)/N=N/c1nc(Cc2ccccc2)[nH]c1C(N)=O | 2.89
C/N=N/Nc1ccccc1 | 3.6
COC(=O)c1ccc(/N=N/N(C)C)cc1 | 3.2
Cc1cccc(/N=N/N(C)C)c1 | 3.4
CCOC(=O)CCCc1ccc(/N=N/N(C)C)cc1 | 3.54
CN(C)/N=N/c1ccc(S(=O)(=O)Nc2ncccn2)cc1 | 3.74
CCCCCCCCOC(=O)c1[nH]cnc1/N=N/N(C)C | 3.06
CN(C)/N=N/c1ccccc1[N+](=O)[O-] | 3.28
CCOC(=O)c1ccc(/N=N/N(C)CC)cc1 | 3.01
CN(/N=N/c1nc[nH]c1C(N)=O)c1cccs1 | 3.87
CCCCN(C)/N=N/c1[nH]cnc1C(N)=O | 3.54
COC(=O)c1cccc(/N=N/N(C)C)c1 | 3.42
Cc1[nH]nc(C(N)=O)c1/N=N/N(C)C | 3.84
CN(C)/N=N/c1cc(C#N)cc(C#N)c1 | 2.78
Cc1nc(/N=N/N(C)C)c(C(N)=O)[nH]1 | 3.06
C=CCN(C)/N=N/c1ccc(C(N)=O)cc1 | 3.38
CN(C)/N=N/c1ccccc1C(=O)NCC(N)=O | 3.25
CN(C)/N=N/c1ccc(C(N)=O)cc1 | 3.51
CN(C)/N=N/c1[nH]cnc1C(N)=O [DACARBAZINE] | 3.29
C=CCN(C)/N=N/c1ccc(NC(N)=O)cc1 | 3.77
CCCCN(C)/N=N/c1ccc(CCC(=O)OCC)cc1 | 3.02

Compound | log(1/C)
CCCCOC(=O)c1[nH]cnc1/N=N/N(C)C | 3.53
COC(=O)c1n[nH]c(C(C)C)c1/N=N/N(C)C | 3.3
CN(CCc1ccccc1)/N=N/c1n[nH]cc1C(N)=O | 3.52
COC(=O)c1[nH]cnc1/N=N/N(C)C | 3.86
CN(C)/N=N/c1ccccc1C(=O)NCC#N | 3.22
CN(Cc1ccccc1)/N=N/c1nc[nH]c1C(N)=O | 3.43
CCOC(=O)c1[nH]cnc1/N=N/N(C)C | 3.98
CN(C)/N=N/c1ccc(C(N)=O)cc1C(N)=O | 3.27
CN(C)/N=N/c1ccc(S(N)(=O)=O)cc1 | 3.6
CN(C)/N=N/c1c(Cl)cc(Cl)cc1C(N)=O | 3.14
CC(C)CN(C)/N=N/c1nc[nH]c1C(N)=O | 3.51
CN(C)/N=N/c1c(F)cccc1F | 3.63
CCCCN(C)/N=N/c1n[nH]cc1C(=O)OCC | 3.16
CCCCCCCCN(C)/N=N/c1ccc(Cl)cc1C(=O)O | 3.14
CN(C)/N=N/c1cc(C(N)=O)cc(C(N)=O)c1 | 3.27
CCNC(=O)c1ccccc1/N=N/N(C)C | 2.92
CC(C)N(C)/N=N/c1ccc(C(N)=O)cc1 | 3.17
C=CCN(C)/N=N/c1ccccc1C(N)=O | 3.43
CN(CCO)/N=N/c1ccccc1C(N)=O | 3.07
CN(C)/N=N/c1n[nH]cc1C(N)=O | 3.49
COc1ccc(CN(C)/N=N/c2ccc(C#N)cc2)cc1 | 2.72
CN(C)/N=N/c1ccc(NC=O)cc1 | 3.85
CCCCCN(C)/N=N/c1nc[nH]c1C(N)=O | 3.58

Compound | log(1/C)
CCCCCCCCN(C)/N=N/c1ccc(C(N)=O)cc1 | 2.84
CN(C)/N=N/c1ccc(S(N)(=O)=O)cc1C(N)=O | 3.32
CCCCN(C)/N=N/c1ccc([N+](=O)[O-])cc1C(N)=O | 3.08
CN(C)/N=N/c1c[nH]nc1C(N)=O | 3.42
COc1ccc(C(N)=O)cc1/N=N/N(C)C | 3.95
CCCc1nc(/N=N/N(C)C)c(C(N)=O)[nH]1 | 3.42
CCCCN(C)/N=N/c1n[nH]cc1C(N)=O | 3.81
CCOC(=O)c1nc(C)[nH]c1/N=N/N(C)C | 3.35
CN(C)/N=N/c1ccc([N+](=O)[O-])cc1C(N)=O | 3.26
CNC(=O)c1ccccc1/N=N/N(C)C | 3.25
CCCN(C)/N=N/c1n[nH]cc1C(N)=O | 3.7
CN(CCc1ccccc1)/N=N/c1nc[nH]c1C(N)=O | 3.49
CN(Cc1ccccc1)/N=N/c1ccccc1 | 3.03
COC(=O)c1ccccc1/N=N/N(C)CC(C)C | 3.12
CC(=O)c1cccc(/N=N/N(C)C)c1 | 3.58
Cc1ccc(/N=N/N(C)C)cc1 | 3.76
CN(C)/N=N/c1ccccc1C(=O)O | 3.64
CN(/N=N/c1ccc(C(N)=O)cc1)c1cccs1 | 2.9
CCCCN(C)/N=N/c1ccccc1C(=O)O | 3.15
CN(CCO)/N=N/c1[nH]cnc1C(N)=O | 3.12
CCCCN(C)/N=N/c1ccccc1C(N)=O | 3.1
C#CCN(C)/N=N/c1nc[nH]c1C(N)=O | 3.61
CCN(C)/N=N/c1ccc(C(N)=O)cc1 | 3.66

Compound | log(1/C)
COc1ccc(/N=N/N(C)C(=O)c2ccccc2)cc1 | 3.05
CN(C)/N=N/c1cccc(C(N)=O)c1 | 3.8
CN(C)/N=N/c1ccc(C#N)cc1C(N)=O | 3.46
C=CCN(C)/N=N/c1n[nH]cc1C(N)=O | 3.77
CN/N=N/c1nc[nH]c1C(=O)OC | 3.35
CCCN(C)/N=N/c1ccccc1C(N)=O | 3.26
CN(C)/N=N/c1ccc(C(=O)O)cc1 | 3.22
CN(/N=N/c1ccccc1C(=O)NN)C1CCCCC1 | 2.99
CN(C)/N=N/c1cc(Cl)cc(C(N)=O)c1Cl | 3.04
CC(=O)Nc1ccc(/N=N/N(C)C)cc1 | 4.04
CN/N=N/c1nc[nH]c1C(=O)N1CCCC1 | 3.28
CN(C)/N=N/c1cccnc1 | 3.46
CCCN(C)/N=N/c1nc[nH]c1C(N)=O | 3.58
CC(C)Cc1nc(/N=N/N(C)C)c(C(N)=O)[nH]1 | 3.53
CCOC(=O)c1ccc(/N=N/N(C)CC(C)C)cc1 | 2.8
CCOC(=O)c1c[nH]nc1/N=N/N(C)C | 3.35
CCCCN(C)/N=N/c1c(C(N)=O)n[nH]c1C | 3.83
CCOC(=O)c1[nH]cnc1/N=N/N(C)CCO | 3.38
CCN(C)/N=N/c1ccc(NC(N)=O)cc1 | 3.87
CN(C)/N=N/c1ccc(CCCC(=O)NN)cc1 | 3.6
CN(CCO)/N=N/c1n[nH]cc1C(N)=O | 3.1

test system: not listed separately; test: Distribution coefficient, log P of the compound; format: physicochemical; conditions: octanol/water

Compound | logP
CN(C)/N=N/c1ccc(NC(N)=O)cc1 | 1.25
CN(C)/N=N/c1cc(C#N)cc(C#N)c1 | 2.18
C=CCN(C)/N=N/c1ccc(C(N)=O)cc1 | 2.09
CN(C)/N=N/c1ccccc1C(=O)NCC(N)=O | 1.17
CN(C)/N=N/c1ccccc1C(=O)NCC#N | 1.79
CCOC(=O)c1[nH]cnc1/N=N/N(C)C | 0.44
CN(C)/N=N/c1ccc(S(N)(=O)=O)cc1 | 0.98
CN(C)/N=N/c1cc(C(N)=O)cc(C(N)=O)c1 | 0.22
COc1ccc(C(N)=O)cc1/N=N/N(C)C | 0.44
CNC(=O)c1ccccc1/N=N/N(C)C | 1.83

same assay, conditions: octanol/water; read-out: logP

Compound | logP
CN(Cc1ccccc1)/N=N/c1nc[nH]c1C(N)=O | 1.54
CN(C)/N=N/c1n[nH]cc1C(N)=O | -0.12

species on record: Mus musculus; test: Toxicity in mouse L1210 cells allografted mouse assessed as mortality up to 5 days; format: organism-based; conditions: l1210, 120 h

Compound | Activity
CC(=O)c1ccc(/N=N/N(C)C)cc1 | Toxic
COc1ccc(/N=N/N(C)C)c(C(=O)O)c1 | Toxic
CN/N=N/c1ccc(C)cc1 | Toxic
CN(C)/N=N/c1cccc(NC(N)=O)c1 | Toxic
CN(/N=N/c1ccccc1C(=O)O)C1CCCCC1 | Toxic
CON(C)/N=N/c1ccc(C(N)=O)cc1 | Toxic
CNN(C)/N=N/c1ccc(C(N)=O)cc1 | Toxic
CN(CC#N)/N=N/c1ccc(C(N)=O)cc1 | Toxic
CN(C)/N=N/c1ccc(Cl)cc1C(N)=O | Toxic
CN(C)/N=N/c1ccc([N+](=O)[O-])cc1 | Toxic
CN(CCO)/N=N/c1ccccc1Cl | Toxic
CN(C)/N=N/c1cccc(Cl)c1 | Toxic
CONC(=O)c1ccccc1/N=N/N(C)C | Toxic
CN(C)/N=N/c1ccc(Cl)cc1 | Toxic
CN(C)/N=N/c1ccc(C(F)(F)F)cc1 | Toxic
CN(CCO)/N=N/c1ccccc1C#N | Toxic
C=CCN(CC=C)/N=N/c1ccc(C(N)=O)cc1 | Toxic

test system: L1210; test: Antitumor activity against mouse L1210 cells allografted in mouse assessed as increase of host lifespan of 110 days; format: functional, cell-based; conditions: not given

Compound | Activity
CN(C)/N=N/c1ccccc1C(=O)NCC(F)(F)F | inactive
CN(C)/N=N/c1ccc(Cl)cc1C(=O)O | inactive
CN(C)/N=N/c1ccc([N+](=O)[O-])cc1C(=O)O | inactive
CN(C)/N=N/c1ccccc1C(F)(F)F | inactive
